Laboratory results reported in US20030050248A1 (priority 2000, published 2003).
Converted amounts (≈) assume the structure as drawn. Where two headings read alike, the source gives them in different places.

What was measured:
S. aureus [1] = test system: S. aureus
RNAIII = type: cell-based, S. aureus
S. aureus [2] = experiment: Mouse model, Staph injected IP 20 min prior to drug injection (IP); type: in vivo, mice; details: 20 min after Staph
Method: (§1) The assay was carried out by injecting a fixed amount of a S. aureus culture, typically containing from about 5×10^9 cells from an early exponential growth stage culture, by intraperitoneal (IP) injection into mice, based on the method described by Thakker et al., 1998.
In another approach, S. aureus was injected IP 20 minutes prior to IP injection of VIF-1 or FTB.
The commonly used anti-Staphylococcal antibiotics, methicillin and vancomycin, were tested in this model.

S. aureus [3] = experiment: microbe, parasite or virus in culture; details: Staphylococcus aureus, Erythrocyte, in Oryctolagus cuniculus
S. aureus [4] = experiment: Mouse model, Staph mixed with drug prior to IP injection; type: in vivo, mice; details: mixed with Staph prior to IP injection
Method: as §1
In one study, the S. aureus was mixed with VIF-1 or FTB, prior to IP injection.

[5] = read-out: Inhibition of α-Hemolysin production, Table 4, (n) in cell = number of determinations
[6] = read-out: IC50 (relative activity), text b100/b101, assay not named, values match the α-hemolysin column of Table 4

Structure (SMILES) | Inhibition of α-Hemolysin production (S. aureus [1]) | IC50 (relative activity) (S. aureus [1]) [µg] | other results
CC(C)(C)OC(=O)n1cc(C[C@@H](NC(=O)OCC2c3ccccc3-c3ccccc32)C(=O)O)c2ccccc21 [Reference #78, Fmoc-D-Trp(Boc)-OH] | 1.3 (5) μg/ml | – | –
O=C(O)[C@@H]1CC[C@H](c2ccccc2)N1C(=O)OCC1c2ccccc2-c2ccccc21 [(2S,5R)-Fmoc-5-phenyl-pyrrolidine-2-carboxylic acid] | – | 1.0 | –
O=C(N[C@@H](Cc1c[nH]c2ccccc12)C(=O)O)OCC1c2ccccc2-c2ccccc21 [Fmoc-L-Trp-OH] | – | 9 | –
O=C(O)CC(NC(=O)OCC1c2ccccc2-c2ccccc21)c1ccc(Br)cc1 (racemic) [(R,S)-Fmoc-3-amino-3-(4-bromophenyl)-propionic acid] | – | 1.0 | –
O=C(NCCCC[C@H](NC(=O)OCC1c2ccccc2-c2ccccc21)C(=O)O)OCc1ccccc1 [Reference #69, Fmoc-L-Lys(Z)-OH] | 2.8 (4) μg/ml | – | Inhibition of RNA III activation (RNAIII): 4.7 (3) μg/ml
O=C(N[C@@H](Cc1ccccc1)C(=O)O)OCC1c2ccccc2-c2ccccc21 [Reference #32, Fmoc-L-Phe-OH] | 1.3 µg/mL | – | Inhibition of RNA III activation (RNAIII): >2.5 µg/mL
O=C(O)CC(NC(=O)OCC1c2ccccc2-c2ccccc21)c1ccc(Br)cc1 (racemic) [Reference #127, (R,S)-Fmoc-3-amino-3-(4-bromophenyl)-propionic acid] | 1.4 (3) μg/ml | – | –
O=C(N[C@@H](Cc1ccccc1)C(=O)O)OCC1c2ccccc2-c2ccccc21 [Fmoc-L-Phe-OH] | – | 1.3 | –
CC(C)[C@H](NC(=O)OCC1c2ccccc2-c2ccccc21)C(=O)O [Fmoc-L-Val-OH] | – | 4.2 | –
O=C(N[C@@H](Cc1ccc(Cl)cc1)C(=O)O)OCC1c2ccccc2-c2ccccc21 [Reference #92, Fmoc-4-chloro-L-D-phenylalanine] | 1.6 (5) μg/ml | – | –
CN[C@H](CC(C)C)C(=O)N[C@H]1C(=O)N[C@@H](CC(N)=O)C(=O)N[C@H]2C(=O)N[C@H]3C(=O)N[C@H](C(=O)N[C@H](C(=O)O)c4cc(O)cc(O)c4-c4cc3ccc4O)[C@H](O)c3ccc(c(Cl)c3)Oc3cc2cc(c3O[C@@H]2O[C@H](CO)[C@@H](O)[C@H](O)[C@H]2O[C@H]2C[C@](C)(N)[C@H](O)[C@H](C)O2)Oc2ccc(cc2Cl)[C@H]1O [vancomycin, reference compound] | – | – | % Survival at 24 hr. (S. aureus [2]; 0.5 mg/kg IP): 17%; % Survival at 24 hr. (S. aureus [2]; 5 mg/kg IP): 50%; % Survival at 24 hr. (S. aureus [2]; 50 mg/kg IP): 100%
O=C(N[C@@H](CC1CCCCC1)C(=O)O)OCC1c2ccccc2-c2ccccc21 [Reference #82, Fmoc-beta-cyclohexyl-L-alanine] | – | – | IC50 (S. aureus [3]; [5]): 4 µg/mL (≈ 10.2 µM)
O=C(N[C@H](C(=O)O)c1ccccc1)OCC1c2ccccc2-c2ccccc21 [Fmoc-L-phenylglycine] | – | – | IC50 (S. aureus [3]; [6]): 5 µg/mL (≈ 13.4 µM)
O=C(N[C@@H](Cc1cccs1)C(=O)O)OCC1c2ccccc2-c2ccccc21 [Reference #83, Fmoc-beta-(2-thienyl)-L-alanine] | – | – | IC50 (S. aureus [3]; [6]): 25 µg/mL (≈ 63.5 µM); IC50 (S. aureus [3]; [5]): 25 µg/mL (≈ 63.5 µM)
O=C(NC1(C(=O)O)CCCCC1)OCC1c2ccccc2-c2ccccc21 [Fmoc-1-amino-1-cyclohexane carboxylic acid] | – | 0.9 | –
O=C(O)CC[C@H](Cc1ccccc1)NC(=O)OCC1c2ccccc2-c2ccccc21 [Reference #126, (R)-Fmoc-4-amino-5-phenyl-pentanoic acid] | 1.7 (4) μg/ml | – | Inhibition of RNA III activation (RNAIII): 9.0 (2) μg/ml
CC(C)(C)OC(=O)n1cnc(C[C@H](NC(=O)OCC2c3ccccc3-c3ccccc32)C(=O)O)c1 [Reference #43, Fmoc-L-His(Boc)-OH] | >50 µg/mL | – | –

Structure (SMILES) | Inhibition of α-Hemolysin production (S. aureus [1]) | IC50 (relative activity) (S. aureus [1]) [µg] | other results
O=C(O)[C@H]1[C@H](c2ccccc2)CN1C(=O)OCC1c2ccccc2-c2ccccc21 (racemic) [Reference #104, Racemic Fmoc-trans-3-phenyl-azetidine-2-carboxylic acid] | – | 3.9 | –
CC(C)[C@H](NC(=O)OCC1c2ccccc2-c2ccccc21)C(=O)O [Reference #38, Fmoc-L-Val-OH] | 1.5 µg/mL | – | Inhibition of RNA III activation (RNAIII): >2.5 µg/mL
CC(C)(C)OC(=O)n1cc(C[C@H](N)C(=O)O)c2ccccc21 [Reference #45, H-L-Trp(Boc)-OH] | >50 µg/mL | – | Inhibition of RNA III activation (RNAIII): >10.0 µg/mL
COc1cccc(OC)c1C(=O)N[C@@H]1C(=O)N2[C@@H]1SC(C)(C)[C@@H]2C(=O)O [methicillin, reference compound] | – | – | % Survival at 24 hr. (S. aureus [2]; 1 mg/kg IP): 17%; % Survival at 24 hr. (S. aureus [2]; 10 mg/kg IP): 50%; % Survival at 24 hr. (S. aureus [2]; 100 mg/kg IP): 100%
O=C(O)[C@@H]1CCN1C(=O)OCC1c2ccccc2-c2ccccc21 [Reference #120, Fmoc-L-azetidine-2-carboxylic acid] | 12.0 µg/mL | – | –
CC(C)(C)OC(=O)n1cc(C[C@H](NC(=O)OCC2c3ccccc3-c3ccccc32)C(=O)O)c2ccccc21 [Fmoc-L-Trp(Boc)-OH] | – | 1.2 | –
CC(C)(C)OC(=O)n1cc(C[C@@H](NC(=O)OCC2c3ccccc3-c3ccccc32)C(=O)O)c2ccccc21 [Fmoc-D-Trp(Boc)-OH] | – | 1.0 | –
C[C@H](NC(=O)OCC1c2ccccc2-c2ccccc21)C(=O)O [Reference #52, Fmoc-L-Ala-OH] | 6.5 µg/mL | – | –
CC(C)C[C@H](NC(=O)OCC1c2ccccc2-c2ccccc21)C(=O)O [Reference #67, Fmoc-L-Leu-OH] | 2.1 (4) μg/ml | – | –
O=C(O)CC[C@H](Cc1ccccc1)NC(=O)OCC1c2ccccc2-c2ccccc21 [(R)-Fmoc-4-amino-5-phenyl-pentanoic acid] | – | 1.7 | –
C[C@H](NC(=O)OCC1c2ccccc2-c2ccccc21)C(=O)O [Fmoc-L-Ala-OH] | – | 6.5 | –
N[C@@H](Cc1c[nH]c2ccccc12)C(=O)O [Trp, reference compound] | – | – | % Survival at 24 hr. (S. aureus [4]; 1 mg/kg): 0%; % Survival at 24 hr. (S. aureus [4]; 5 mg/kg): 33%
O=C(N[C@@H](Cc1cnc[nH]1)C(=O)O)OCC1c2ccccc2-c2ccccc21 [Reference #42, Fmoc-L-His] | 47 µg/mL | – | –
O=C(N[C@@H](Cc1c[nH]c2ccccc12)C(=O)O)OCC1c2ccccc2-c2ccccc21 [Reference #34, Fmoc-L-Trp-OH] | 9.0 µg/mL | – | Inhibition of RNA III activation (RNAIII): >2.5 µg/mL
O=C(O)[C@@H]1CCN1C(=O)OCC1c2ccccc2-c2ccccc21 [Fmoc-L-azetidine-2-carboxylic acid] | – | 12 | –
O=C(O)[C@H]1Cc2c([nH]c3ccccc23)CN1C(=O)OCC1c2ccccc2-c2ccccc21 [Reference #18, Fmoc-D-1,2,3,4-tetrahydronorharman-3-carboxylic acid] | 2.0 (5) μg/ml | – | –
